# According to patent US11298338B2, “Compositions and methods for cancer therapy” (UNIVERSITY OF IOWA RESEARCH FOUNDATION, priority 2016, dated 2022):
# Entries after “also recorded” stand apart in the source; their conditions may differ.
# Experiments:
# OCI-MY5 cells = experiment: OCI-MY5 cell viability after 1 hr PAA treatment; type: cell-based, human; conditions: for effect of pre-treatment on PAA-induced cell death: OCI-MY5, catalase 100 U/ml, NAC 15 mM, DFO 200 μM or BCS 10 μM for 3 hrs before PAA, viability 24 hrs later
# Method: FIGS. 2A-2D. […] OCI-MY5 EV (FIG. 2C) and OCI-MY5 OE-Fpn1 (FIG. 2D) were incubated with or without iron (Fe-NTA (FE), 100 μM).
# (§1) FIGS. 4A-4E. […] (FIG. 4A) Top bar graph represents OCI-MY5 shRNA-Scramble and shRNA-AIF1 cells incubated with doxycycline to knockdown AIF1 for 2 days. Bottom bar graph represents OCI-MY5 EV and OCI-MY5 OE-AIF1 cells. […] Knockdown and overexpression of AIF1 was confirmed by western blots. […] AIF1, β-actin and γ-H2AX levels were analyzed by western blots. […] AIF1 and β-actin levels were analyzed by western blots. […] N, M, C respectively represent nucleus, mitochondria and cytoplasm. Blue arrows indicate the nuclear membrane and red arrowheads indicate AIF1 gold beads in cytoplasm or mitochondria. Black arrowheads indicate AIF1 gold beads in nuclei.
# FIGS. 9A-9B. […] (FIG. 9B) Total RNA was extracted from OCI-MY5 EV and OE cells and Fpn1 mRNA was analyzed by Real time RT-PCR.
# Human myeloma cell lines (ARP1, OCI-MY5 and their derivative cell lines) were cultured in RPMI 1640 (Invitrogen, Carlsbad, Calif.), supplemented with 10% heat-inactivated FBS (Invitrogen), penicillin (100 IU/mL), and streptomycin (100 μg/mL) in a humidified incubator at 37° C. and 5% CO2/95% air. To increase cellular iron concentration, ferric nitrilotriacatate (Fe-NTA) was used.
# [1] = intraperitoneal administration of 4 g ascorbate per kilogram of body weight; cited from earlier work
# CD138- non-MM cells = experiment: Pharmacological Ascorbic Acid viability assay (Trypan Blue), CD138- cells from patients; type: cell-based, human; conditions: CD138- BM cells from the same MM patients
# Method: (§2) Pharmacological Ascorbic Acid (PAA) was kindly provided by Dr. Garry R. Buettner (University of Iowa). CD138^+ MM cells and CD138^− non-MM cells were isolated from MGUS, SMM, and MM patient samples using anti-CD138 immunomagnetic beads (Miltenyl Biotec, Auburn, Calif.). […] After incubation, the cells were washed and cultured up to 24 h. Cell counts and viable cell number were determined using Trypan Blue staining.
# [2] = system: ARP1 MM cells with TRIP13 overexpression; experiment: Cell viability of ARP1 cells with TRIP13-OE or EV under drug treatment; type: cell-based, human; conditions: for response of TRIP13-OE ARP1 cells to drug: ARP1-OE vs ARP1-EV, different doses (FIGS. 37A, 37B)
# AIF1 [3] = experiment: AIF1 immunolabeling electron microscopy in OCI-MY5 cells; type: cell-based, human; conditions: OCI-MY5, PAA 2 mM (FIG. 4E)
# Method: as §1
# (§3) Electron microscopy was performed by the Central Microscopy Research Facility personnel at the University of Iowa. Images were captured on JEOL JEM 1230.
# AIF1 [4] = experiment: Western blot of nuclear AIF1 in ARP1 MM cell line; type: cell-based, human; conditions: TRIP13N and TRIP13OE MM cells (FIG. 38D)
# [5] = cited from earlier work
# ARP1 MM cells = experiment: Human myeloma xenograft mice, tumor burden by IVIS and survival; type: in vivo, NOD.Cγ-Rag1 mice; conditions: for MM cell growth (tumor burden) compared to the control group: p<0.05, melphalan, carfilzomib, bortezomib 3 mg/kg, 3 weeks
# Method: NOD.Cγ-Rag1 mice 6-8 weeks old (Jackson laboratory, Bar Harbor, Me.) were injected intravenously with ARP1 MM cells (1×10^6) expressing luciferase. […] Bortezomib (3 mg/kg) was injected intraperitoneal once a day, 2 days a week for 3 weeks. The mice were euthanized when humane endpoint was reached.
# Xenogen IVIS-200 an in vivo imaging system (IVIS) was used to analyze tumor burden and was indicated by quantification of luciferase intensity of mice pre- and post-treatments.
# GEP data were analyzed by One-Way Anova test using log 2 transformed Affymetrix Signals and presented by boxplot. The comparisons of tumor burden were analyzed either by student t-test (2 groups) or by One-Way Anova test (>2 groups). Kaplan-Meier method was performed for survival with the use of SPSS 16.0 software (SPSS, Chicago, Ill.). Two-tailed p value at an alpha level of 0.05 was considered to indicate statistical significance. Graphs were generated using Prism 6 software.
# γ-H2AX = experiment: Western blot of phosphorylated γ-H2AX in OCI-MY5 cells; type: cell-based, human; conditions: OCI-MY5 (FIG. 4C); melphalan alone at high dose, with PAA at lower dose
# Method: as §1
# (§4) Cells were harvested and lysed with lysis buffer: 150 mM NaCl, 10 mM EDTA, 10 mM Tris, pH 7.4, 1% X-100 Triton. Cell lysates were subjected to SDS-PAGE, transferred onto a pure nitrocellulose membrane (BioRad), and blocked with 5% fat-free milk. […] Membranes were incubated with horseradish peroxidase (HRP)-conjugated anti-mouse secondary antibody (1:10,000, Santa Cruz Biotechnology, cat #: sc-2005) or anti-rabbit secondary antibody (1:10,000, AnaSpec Inc., cat #: AS-28177) for 1 h and chemi-luminescence signals were detected by HRP substrate (EMD Millipore).
# RIP1 and RIP3 = experiment: Western blot of RIP1 and RIP3 in OCI-MY5 WT cells; type: cell-based, human; conditions: OCI-MY5 WT after PAA (FIG. 3B)
# Method: (§5) FIGS. 3A-3B. […] Red boxes represent zooming image of mitochondria in OCI-MY5 WT cells (left) and OCI-MY5 WT cells treated with PA (right).
# (§6) Cells were harvested and lysed with lysis buffer: 150 mM NaCl, 10 mM EDTA, 10 mM Tris, pH 7.4, 1% X-100 Triton. Cell lysates were subjected to SDS-PAGE, transferred onto a pure nitrocellulose membrane (BioRad), and blocked with 5% fat-free milk. Primary antibodies for immunoblotting included: anti-AIF1 (1:1000, Cell Signaling), anti-RIP (1:1000, Santa Cruz Biotechnology), anti-RIP3 (1:1000, Cell Signaling), anti-Caspase3 (1:1000, Cell Signaling), anti-Caspase 8 (1:1000, Cell Signaling), anti-Caspase 9 (1:1000, Cell Signaling) Phosphorylated γH2AX (1:1000, Enzo Life Sciences), and β-actin (1:1000, Cell Signaling) as loading control. Membranes were incubated with horseradish peroxidase (HRP)-conjugated anti-mouse secondary antibody (1:10,000, Santa Cruz Biotechnology, cat #: sc-2005) or anti-rabbit secondary antibody (1:10,000, AnaSpec Inc., cat #: AS-28177) for 1 h and chemi-luminescence signals were detected by HRP substrate (EMD Millipore).
# caspases 3, 8, and 9 = experiment: Western blot of caspases in OCI-MY5 WT cells; type: cell-based, human; conditions: OCI-MY5 WT after PAA (FIG. 3B)
# Method: as §5, §6
# OCI-MY5 WT cells = experiment: Transmission electron microscopy of PAA-treated OCI-MY5 WT cells; type: cell-based, human; conditions: 4 mM PAA one hour, fixed after 60 and 120 min
# Method: as §5, §3
# AIF1 [6] = experiment: Western blot of AIF1 cleavage in OCI-MY5 cells; type: cell-based, human; conditions: OCI-MY5 cells (FIG. 4C); melphalan 0-80 μM 4 hrs
# Method: as §1, §4
# CD138+ MM cells = experiment: Pharmacological Ascorbic Acid viability assay (Trypan Blue), CD138+ cells from patients; type: cell-based, human
# Method: as §2, with “CD138^+” for “Pharmacological Ascorbic Acid (PAA) was kindly provided by Dr. Garry R. Buettner (University of Iowa). CD138^+”
# [7] = system: KMS11, ARK and ARP1 cells; experiment: Erastin growth inhibition, PrestoBlue assay; type: cell-based, human; conditions: ferrostatin (Fer-1) 1 μM with 10 μM Erastin, 48 hours
# Method: FIG. 23. Erastin Inhibits MM Cells Growth. KMS11, ARK and ARP1 cells were treated with 10 μM Erastin with or without ferrostatin (Fer-1) at 1 μM for 48 hours. Cell proliferation was measured by PrestoBlue assay and normalized to control cells to calculated growth inhibition.
compound,measurement,setting,value
"O=C([O-])CN(CC(=O)[O-])CC(=O)[O-].[Fe+3] [Iron, ferric nitrilotriacatate]",cell viability after iron pre-treatment and PAA,"OCI-MY5 cells; OCI-MY5 EV cells, Fe-NTA 100 μM 18 hrs (FIG. 2C)",rapid decrease in cells viability
same,cell viability after iron pre-treatment and PAA,"OCI-MY5 cells; OCI-MY5 OE-Fpn1 cells, Fe-NTA 100 μM 18 hrs (FIG. 2D)",same effect
"CC(=O)N[C@@H](CS)C(=O)O [NAC, N-acetyl cysteine]",effect of pre-treatment on PAA-induced cell death,OCI-MY5 cells,resistant to PAA
"O=C1O[C@H]([C@@H](O)CO)C(O)=C1O [PAA, ascorbic acid]",levels of ascorbate,[1],20000 to 40000 µM
same,levels of ascorbyl radicals,[1],0.5 µM
same,cell viability of CD138- BM cells following PAA treatment,CD138- non-MM cells,no significant change
same,response of TRIP13-OE ARP1 cells to drug,[2],sensitive
same,"viability after PAA treatment, AIF1-shRNA cells versus scrambled sequence",OCI-MY5 cells; OCI-MY5 AIF1-shRNA (FIG. 4A top),significantly higher
same,PAA concentration able to kill cells,OCI-MY5 cells; OCI-MY5 EV cells,4 mM
same,"viability after PAA treatment, OE-AIF1 cells versus empty vector",OCI-MY5 cells; OCI-MY5 OE-AIF1 (FIG. 4A bottom),significantly less viability
same,PAA concentration required to successfully kill cells,OCI-MY5 cells; OCI-MY5 OE-Fpn1 cells,20 mM
same,cellular localization of AIF1,AIF1 [3],also in cytoplasm and nuclei
same,AIF1 nuclear translocation,AIF1 [4],induces AIF1 nuclear translocation
same,safety and tolerability,"[5]; IV, animals and humans",safe and well tolerated
same,plasma concentrations from pharmacological doses,[5]; intravenous (IV) administration,≥ 10 mM
same,MM cell growth (tumor burden) compared to the control group,"ARP1 MM cells; FIG. 1D, PAA 4 mg/kg",inhibited MM cell growth significantly
same,tumor burden with PAA in mice receiving iron chelator DFO at the same time,"ARP1 MM cells; PAA 4 mg/kg IP once a day, DFO 100 mg/Kg twice a week IP (FIG. 25)",not able to decrease tumor burden
same,tumor progression by IVIS,"ARP1 MM cells; PAA 4 mg/kg, once per day, IP, 15 days vs saline",significantly delayed
same,phosphorylated γ-H2AX level,γ-H2AX,induced γ-H2AX
same,RIP1 and RIP3 cleavage,RIP1 and RIP3,cleaved
same,"caspases 3, 8, and 9 activity (cleavage)","caspases 3, 8, and 9",marked increase
same,type of cell death by TEM,OCI-MY5 WT cells,"early necrosis (FIG. 3A, 60 mins) followed by late apoptosis"
same,AIF1 cleavage by western blotting,AIF1 [6],increase in the AIF1 cleaved form
same,response to PAA of CD138+ cells from MGUS patients,CD138+ MM cells; 2 MGUS patients (FIG. 1C),almost no response
same,survival of CD138+ cells in vitro following PAA treatment,"CD138+ MM cells; CD138+ cells from MM patients, PAA 1 hr, washed, cultured up to 24 h",significantly decreased; also recorded: increased killing
same,effect of PAA on cell viability in SMM patients,CD138+ MM cells; cells from SMM patients (FIG. 1B),same effect
CC(C)C[C@H](NC(=O)[C@H](Cc1ccccc1)NC(=O)c1cnccn1)B(O)O [bortezomib],growth inhibition in TRIP13-OE MM cells compared with EV controls,"[2]; ARP1, 24 h, p<0.05 (FIGS. 27E, 27F)",significantly less growth inhibition
same,response of TRIP13-OE ARP1 cells to drug,[2],resistant
same,AIF1 nuclear translocation,AIF1 [4],does not increase AIF1 nuclear localization
same,MM cell growth (tumor burden) compared to the control group,"ARP1 MM cells; FIG. 1D, PAA 4 mg/kg",inhibited MM cell growth significantly
CC(C)C[C@H](NC(=O)[C@H](CCc1ccccc1)NC(=O)CN1CCOCC1)C(=O)N[C@@H](Cc1ccccc1)C(=O)N[C@@H](CC(C)C)C(=O)[C@@]1(C)CO1 [carfilzomib],MM cell growth (tumor burden) compared to the control group,"ARP1 MM cells; FIG. 1D, PAA 4 mg/kg",inhibited MM cell growth significantly
CCOC(=O)c1ccc(NC2CCCCC2)c(N)c1 [ferrostatin],effect of ferroptosis inhibitor on erastin growth inhibition,[7],can be reversed
N[C@@H](Cc1ccc(N(CCCl)CCCl)cc1)C(=O)O [melphalan],MM cell growth (tumor burden) compared to the control group,"ARP1 MM cells; FIG. 1D, PAA 4 mg/kg",inhibited MM cell growth significantly
same,tumor burden compared among treatments,"ARP1 MM cells; FIG. 1D, single agents vs combination",higher decrease in tumor burden
same,time at which presence of tumor was detected,"ARP1 MM cells; highest dose of melphalan, single agent",only after four weeks
same,tumor burden at three weeks of treatment,"ARP1 MM cells; melphalan 1, 3, 5 mg/kg with or without PAA (FIGS. 1E, 1F)",inhibit tumor growth better than PAA alone
same,"MM mouse survival, compared with PAA alone",ARP1 MM cells; single agent melphalan 3 and 5 mg/kg (FIG. 1G),extended MM mouse survival
same,phosphorylated γ-H2AX level,γ-H2AX,induced γ-H2AX
same,AIF1 cleavage by western blotting,AIF1 [6],not able to induce AIF1 cleavage
bathocuproinedisulfonic acid disodium salt [BCS],effect of pre-treatment on PAA-induced cell death,OCI-MY5 cells,not able to block cellular death
catalase,effect of pre-treatment on PAA-induced cell death,OCI-MY5 cells,resistant to PAA
